Experimental data reported in PubChem BioAssay AID2060900 (Molecular Pharmacology Branch, DTP, NCI, 2025).

System: 521955-158-R2-J5-PDC complex spheroids, viability
Assay: Anticancer human tumor 521955-158-R2-J5-PDC patient-derived pancreatic carcinoma cell line growth inhibition [RAS]
Details: for IC50: curve of first compound; for viability, T/C: stronger effect = lower value; active = viability on the fitted dose curve at most 10% of control; inactive = the rest
Excerpt: RAS pathway inhibitors in Combinations in Complex Spheroids
A high-throughput screen of multi-cell type tumor spheroids was designed to identify active combinations of RAS pathway inhibitors and targeted small molecules. Complex spheroids include a stromal component modeled by human endothelial cells (HUVEC) and fibroblasts modeled by human mesenchymal stem cells (MSCs). The concentration ranges selected for each drug and investigational agent were based upon clinically achievable concentrations if the clinical Cmax of the agent was known.
Compounds. The drugs and investigational agents: abemaciclib (NSC768073), cobimetinib (NSC768068), divarasib (GDC6063, NSC841802), docetaxel (NSC628503), GDC-1971 (RLY-1971, NSC841576), gemcitabine (NSC613327), inavolisib (NSC800729), ipatasertib (NSC767898), KB-0742 (NSC834161), MRTX-1133 (NSC836407), osimertinib (NSC779217), RMC-4630 (NSC839698), RMC-6236 (NSC851965), RMC-6291 (NSC852671), Ro-3306 (NSC812927), sapanisertib (NSC764658), SN-38 (NSC673596), staurosporine (NSC755774), SY5609 (NSC837396), and tovorafenib (DAY101, NSC766906), were obtained from the National Cancer Institute (NCI) Developmental Therapeutics Program Chemical Repository. The FDA-approved anticancer drug set is available from the NCI Developmental Therapeutics Program. […] The stock solutions were prepared in dimethyl sulfoxide (DMSO, Sigma-Aldrich, St. Louis, MO, cat. D2650) at 800-fold the tested concentration and stored at -70 degrees C prior to their use. All drugs and investigational agents were tested over a range starting from a high concentration at or near the clinical Cmax and decreasing in half-log increments. If the clinical Cmax for an agent had not been determined, the highest concentration tested was 10 microM.
Cell Culture. All cells were maintained in an incubator at 37 degrees C and 5% CO2 with 95% humidity. The PDC lines were cultured according to standard operating procedures established by the NCI PDMR. All PDCs were thawed and cultured in Matrigel-coated flasks prepared with a working solution of 1X Ham's F-12 nutrient mix, without supplementation (Invitrogen, Waltham, MA, cat. 11765054), 100 U/mL penicillin-streptomycin (Invitrogen, cat. 15140122), and 2.5% Matrigel (Corning Inc., Corning, NY, cat. 354248) for the first three passages. The 362531-283-R-J2-PDC and 782815-120-R-J1-PDC lines were cultured in 6C/Colon 1B media, which includes advanced DMEM/F-12 (Thermo Fisher Scientific, cat. 12634028), 10 mM HEPES (Thermo Fisher Scientific, cat. 15630080), 1X GlutaMAX supplement (Thermo Fisher Scientific, cat. 35050061), 0.1 mg/mL primocin (InvivoGen, San Diego, CA, cat. ant-pm-2), 10% defined fetal bovine serum, heat inactivated (HyClone Laboratories Inc., Logan, UT, cat. SH30070.03HI), 50% L-WRN conditioned media (ATCC, cat. CRL-3276), 1.25 mM N-Acetyl-L-cysteine (Sigma-Aldrich, cat. A9165), 10 mM nicotinamide (Sigma-Aldrich, cat. N0636), 1X B-27 supplement (Thermo Fisher Scientific, cat. 17504044), 1X N-2 supplement (Thermo Fisher Scientific, cat. 17502048), 50 ng/mL human EGF (Thermo Fisher Scientific, cat. PHG0311), and 10 microM Y-27632 dihydrochloride (Tocris Bioscience, cat. 1254). The K12877-001-R-J1-PDC line was cultured in 6I media, which includes all 6C/Colon 1B media plus 10 ng/mL human FGF-10 (PeproTech, cat. 100-26), 1 ng/mL human FGF-2 (PeproTech, cat. 100-18B), 1 µM prostaglandin E2 (Tocris Bioscience, cat. 2296), […] hydrocortisone (Sigma-Aldrich, cat. H4001), and […] bovine insulin (Sigma-Aldrich, cat. I6634). The K86415-001-R-J1-PDC line was cultured in 6D media, which includes all 6C/Colon 1B media components minus the L-WRN conditioned media. The 485176-168-R4-J1-PDC was cultured in PANC media, which includes all 6C/Colon 1B media plus 100 ng/mL human FGF-10 (PeproTech, cat. 100-26), 500 nM SB-431542 (Selleckchem, cat. S1067), and 10 nM gastrin (Tocris Bioscience, cat. 3006). […]
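Also: compound exposure lasted seven days before the viability read.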
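For viability, T/C in this document: spheroids also contain HUVEC endothelial cells and mesenchymal stem cells as stroma.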

Nc1ccn(C2OC(CO)C(O)C2(F)F)c(=O)n1 (configuration not stated) + C#Cc1c(F)ccc2cc(O)cc(-c3ncc4c(N5CC6CCC(C5)N6)nc(OCC56CCCN5CC(F)C6)nc4c3F)c12
active: viability, T/C (second compound 10 µM, first compound 1 µM) 9.08%
< 3.16 nM: IC50 (second compound 0.0316 µM) | IC50 (second compound 0.1 µM) | IC50 (second compound 0.316 µM) | IC50 (second compound 3.16 µM) | IC50 (second compound 10 µM)
3.68 nM: IC50 (second compound 1 µM)
inactive: viability, T/C (second compound 0.0316 µM, first compound 0.00316 µM) 48.8% | viability, T/C (second compound 0.0316 µM, first compound 0.01 µM) 39.5% | viability, T/C (second compound 0.0316 µM, first compound 0.0316 µM) 32.6% | viability, T/C (second compound 0.0316 µM, first compound 0.1 µM) 24.9% | viability, T/C (second compound 0.0316 µM, first compound 0.316 µM) 24.1% | viability, T/C (second compound 0.0316 µM, first compound 1 µM) 18.5% | viability, T/C (second compound 0.1 µM, first compound 0.00316 µM) 44.5% | viability, T/C (second compound 0.1 µM, first compound 0.01 µM) 44.9% | viability, T/C (second compound 0.1 µM, first compound 0.0316 µM) 28.8% | viability, T/C (second compound 0.1 µM, first compound 0.1 µM) 20.9% | viability, T/C (second compound 0.1 µM, first compound 0.316 µM) 21% | viability, T/C (second compound 0.1 µM, first compound 1 µM) 15.4% | viability, T/C (second compound 0.316 µM, first compound 0.00316 µM) 43.3% | viability, T/C (second compound 0.316 µM, first compound 0.01 µM) 42.9% | viability, T/C (second compound 0.316 µM, first compound 0.0316 µM) 28.8% | viability, T/C (second compound 0.316 µM, first compound 0.1 µM) 23.4% | viability, T/C (second compound 0.316 µM, first compound 0.316 µM) 17.4% | viability, T/C (second compound 0.316 µM, first compound 1 µM) 17.8% | viability, T/C (second compound 1 µM, first compound 0.00316 µM) 52.4% | viability, T/C (second compound 1 µM, first compound 0.01 µM) 34.6% | viability, T/C (second compound 1 µM, first compound 0.0316 µM) 27.7% | viability, T/C (second compound 1 µM, first compound 0.1 µM) 16.4% | viability, T/C (second compound 1 µM, first compound 0.316 µM) 15.3% | viability, T/C (second compound 1 µM, first compound 1 µM) 14% | viability, T/C (second compound 3.16 µM, first compound 0.00316 µM) 48.5% | viability, T/C (second compound 3.16 µM, first compound 0.01 µM) 41.6% | viability, T/C (second compound 3.16 µM, first compound 0.0316 µM) 27.5% | viability, T/C (second compound 3.16 µM, first compound 0.1 µM) 20.8% | viability, T/C (second compound 3.16 µM, first compound 0.316 µM) 15% | viability, T/C (second compound 3.16 µM, first compound 1 µM) 13% | viability, T/C (second compound 10 µM, first compound 0.00316 µM) 35.9% | viability, T/C (second compound 10 µM, first compound 0.01 µM) 32.7% | viability, T/C (second compound 10 µM, first compound 0.0316 µM) 20.8% | viability, T/C (second compound 10 µM, first compound 0.1 µM) 20.4% | viability, T/C (second compound 10 µM, first compound 0.316 µM) 13.4%
